52 compounds from patent US9365588B2, “Benzoxazines as modulators of ion channels” (Vertex Pharmaceuticals Incorporated, priority 2011, dated 2016) can be followed below.

The target of this test is human NaV 1.7 (Homo sapiens, UniProt Q15858). Description: E-VIPR optical membrane potential assay with electrical stimulation. The test is classed as cell-based. Conditions: sodium channel inhibition; read-out: Binned Activity Data (IC50). An excerpt: Assays for Detecting and Measuring NaV Inhibition Properties of Compound E-VIPR Optical Membrane Potential Assay Method with Electrical Stimulation
Sequence of human NaV 1.7 (Q15858 whole entry): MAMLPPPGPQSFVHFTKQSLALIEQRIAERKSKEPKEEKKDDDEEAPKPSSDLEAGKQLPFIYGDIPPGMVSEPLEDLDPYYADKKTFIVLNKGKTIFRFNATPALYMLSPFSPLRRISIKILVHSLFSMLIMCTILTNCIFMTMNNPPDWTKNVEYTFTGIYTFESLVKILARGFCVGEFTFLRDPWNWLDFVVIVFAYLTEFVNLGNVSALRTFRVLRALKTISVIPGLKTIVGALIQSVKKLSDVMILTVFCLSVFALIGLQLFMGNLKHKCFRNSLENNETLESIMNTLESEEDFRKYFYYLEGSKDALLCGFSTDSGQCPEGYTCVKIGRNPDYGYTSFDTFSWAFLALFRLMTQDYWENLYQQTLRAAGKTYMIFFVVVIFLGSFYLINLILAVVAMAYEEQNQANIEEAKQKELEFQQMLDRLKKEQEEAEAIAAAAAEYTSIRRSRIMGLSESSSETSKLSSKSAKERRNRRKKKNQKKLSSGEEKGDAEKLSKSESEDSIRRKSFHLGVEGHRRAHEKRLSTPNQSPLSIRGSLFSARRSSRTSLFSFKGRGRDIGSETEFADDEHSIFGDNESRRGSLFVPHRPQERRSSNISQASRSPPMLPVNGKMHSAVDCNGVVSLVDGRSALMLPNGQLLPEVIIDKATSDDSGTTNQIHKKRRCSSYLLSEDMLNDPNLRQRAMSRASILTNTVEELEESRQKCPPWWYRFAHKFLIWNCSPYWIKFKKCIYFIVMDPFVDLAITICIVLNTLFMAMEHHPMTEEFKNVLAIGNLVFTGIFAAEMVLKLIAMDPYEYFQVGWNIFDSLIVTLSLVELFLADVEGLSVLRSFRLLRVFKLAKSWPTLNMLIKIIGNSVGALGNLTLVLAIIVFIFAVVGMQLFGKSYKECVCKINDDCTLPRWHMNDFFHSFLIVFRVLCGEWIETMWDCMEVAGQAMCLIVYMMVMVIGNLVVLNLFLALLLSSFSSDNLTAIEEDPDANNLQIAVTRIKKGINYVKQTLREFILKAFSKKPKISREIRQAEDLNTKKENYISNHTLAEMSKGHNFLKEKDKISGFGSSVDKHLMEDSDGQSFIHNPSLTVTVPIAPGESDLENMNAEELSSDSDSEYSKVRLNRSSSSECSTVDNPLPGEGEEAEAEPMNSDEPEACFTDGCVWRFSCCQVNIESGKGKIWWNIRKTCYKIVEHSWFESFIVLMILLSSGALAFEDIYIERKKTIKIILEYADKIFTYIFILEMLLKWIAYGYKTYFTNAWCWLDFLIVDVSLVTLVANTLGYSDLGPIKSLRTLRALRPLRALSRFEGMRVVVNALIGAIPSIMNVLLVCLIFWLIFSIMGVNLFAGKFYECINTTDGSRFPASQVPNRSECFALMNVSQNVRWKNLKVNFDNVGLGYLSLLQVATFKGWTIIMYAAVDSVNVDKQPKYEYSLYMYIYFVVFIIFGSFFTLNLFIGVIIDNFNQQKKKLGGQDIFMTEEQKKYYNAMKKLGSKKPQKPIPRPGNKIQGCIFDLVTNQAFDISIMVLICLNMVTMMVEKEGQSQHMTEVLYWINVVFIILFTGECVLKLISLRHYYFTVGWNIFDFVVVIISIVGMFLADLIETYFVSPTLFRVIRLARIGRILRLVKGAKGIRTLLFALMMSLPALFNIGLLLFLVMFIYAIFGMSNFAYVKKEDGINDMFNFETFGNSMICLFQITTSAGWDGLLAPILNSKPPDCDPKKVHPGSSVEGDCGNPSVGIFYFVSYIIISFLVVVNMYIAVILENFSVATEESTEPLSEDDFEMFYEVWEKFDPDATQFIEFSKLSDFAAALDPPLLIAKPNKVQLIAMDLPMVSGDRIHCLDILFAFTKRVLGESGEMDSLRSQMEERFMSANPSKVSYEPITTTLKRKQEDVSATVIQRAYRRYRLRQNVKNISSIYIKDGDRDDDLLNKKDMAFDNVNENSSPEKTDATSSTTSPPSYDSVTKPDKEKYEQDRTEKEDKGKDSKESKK
Sodium channels are voltage-dependent proteins that can be activated by inducing membrane voltage changes by applying electric fields. The electrical stimulation instrument and methods of use are described in Ion Channel Assay Methods PCT/US01/21652, herein incorporated by reference and are referred to as E-VIPR. The instrument comprises a microtiter plate handler, an optical system for exciting the coumarin dye while simultaneously recording the coumarin and oxonol emissions, a waveform generator, a current- or voltage-controlled amplifier, and a device for inserting electrodes in well. Under integrated computer control, this instrument passes user-programmed electrical stimulus protocols to cells within the wells of the microtiter plate.
24 hours before the assay on E-VIPR, HEK cells expressing human NaV subtype, like NaV 1.7, are seeded in 384-well poly-lysine coated plates at 15,000-20,000 cells per well. Other subtypes are performed in an analogous mode in a cell line expressing the NaV of interest. HEK cells are grown in media (exact composition is specific to each cell type and NaV subtype) supplemented with 10% FBS (Fetal Bovine Serum, qualified; GibcoBRL #16140-071) and 1% Pen-Strep (Penicillin-Streptomycin; GibcoBRL #15140-122). Cells are grown in vented cap flasks, in 90% humidity and 10% CO2, to 100% confluence. They are usually split by trypsinization 1:10 or 1:20, depending on scheduling needs, and grown for 2-3 days before the next split.
Bath1 buffer. Glucose 10 mM (1.8 g/L), Magnesium Chloride (Anhydrous), 1 mM (0.095 g/L), Calcium Chloride, 2 mM (0.222 g/L), HEPES 10 mM (2.38 g/L), Potassium Chloride, 4.5 mM (0.335 g/L), Sodium Chloride 160 mM (9.35 g/L).
Hexyl Dye Solution: Bath1 Buffer+0.5% β-cyclodextrin (make this prior to use, Sigma #C4767), 8 μM CC2-DMPE+2.5 μM DiSBAC6(3). To make the solution Add volume of 10% Pluronic F127 stock equal to volumes of CC2-DMPE+DiSBAC6(3). The order of preparation is first mix Pluronic and CC2-DMPE, then add DiSBAC6(3) while vortexing, then add Bath1+β-Cyclodextrin.
1) Pre-spot compounds (in neat DMSO) into compound plates. Vehicle control (neat DMSO), the positive control (20 mM DMSO stock tetracaine, 125 μM final in assay) and test compounds are added to each well at 160× desired final concentration in neat DMSO. Final compound plate volume will be 80 μL (80-fold intermediate dilution from 1 μL DMSO spot; 160-fold final dilution after transfer to cell plate). Final DMSO concentration for all wells in assay is 0.625%.
2) Prepare Hexyl Dye Solution.
3) Prepare cell plates. On the day of the assay, medium is aspirated and cells are washed three times with 100 μL of Bath1 Solution, maintaining 25 μL residual volume in each well.
4) Dispense 25 μL per well of Hexyl Dye Solution into cell plates. Incubate for 20-35 minutes at room temp or ambient conditions.
5) Dispense 80 μL per well of Bath1 into compound plates. Acid Yellow-17 (1 mM) is added and Potassium Chloride can be altered from 4.5 to 20 mM depending on the NaV subtype and assay sensitivity.
6) Wash cell plates three times with 100 μL per well of Bath1, leaving 25 μL of residual volume. Then transfer 25 uL per well from Compound Plates to Cell Plates. Incubate for 20-35 minutes at room temp/ambient condition
7) Read Plate on E-VIPR. Use the current-controlled amplifier to deliver stimulation wave pulses for typically 9 seconds and a scan rate of 400 Hz. A pre-stimulus recording is performed for 0.5 seconds to obtain the un-stimulated intensities baseline. The stimulatory waveform is applied for 9 seconds followed by 0.5 seconds of post-stimulation recording to examine the relaxation to the resting state. […]

On to `COc1cc(C(=O)N2CCC3(CC2)Oc2ccccc2-n2cccc23)ccc1OC[C@@H](O)CO` [Compound 140], for which the IC50 was no more than 2000 nM. Regarding `COc1cccc(C(=O)N2CCC3(CC2)Oc2ccccc2-c2c3cnn2C)c1OC` [Compound 831], the 50% inhibitory concentration (IC50) was no more than 2000 nM. For `CCOc1cccc(C(=O)N2CCC3(CC2)Oc2ccccc2-c2c3cnn2C)c1F` [Compound 738], the IC50 was in the range of 2000 to 5000 nM. The figure for `COc1ccc(OC)c(C(=O)N2CCC3(CC2)Oc2ccccc2-c2c3cnn2C)c1` [Compound 358] is 2000 to 5000 nM; for `CN(C)C(=O)c1ccccc1C(=O)N1CCC2(CC1)Oc1ccccc1-c1c2cnn1C` [Compound 448] it is 2000 to 5000 nM.

For the compound `COCCOc1ccc(C(=O)N2CCC3(CC2)Oc2ccccc2-c2c3cnn2C)cc1C` [Compound 761], the IC50 was no more than 2000 nM.

With `O=C(c1ccccc1OC(F)F)N1CCC2(CC1)Oc1ccccc1-c1[nH]ncc12` [Compound 409], the concentration for half-maximal inhibition (IC50) was greater than 5000 nM. Regarding `CC(C)(C)S(=O)(=O)c1ccc(C(=O)N2CCC3(CC2)Oc2ccccc2-n2c(C#N)ccc23)cc1` [Compound 869], the concentration for half-maximal inhibition (IC50) was no more than 2000 nM. As to `Cc1nc(C(=O)N2CCC3(CC2)Oc2ccccc2-c2nn(C)cc23)ccc1OC(C)C` [Compound 262], the 50% inhibitory concentration (IC50) is no more than 2000 nM. Consider `CCS(=O)(=O)c1ccc(C(=O)N2CCC3(CC2)Oc2ccccc2-n2c(C(F)(F)F)ccc23)cc1` [Compound 456], for which the half-maximal inhibitory concentration (IC50) was no more than 2000 nM.

As to `CC(c1ccc(C(=O)N2CCC3(CC2)Oc2ccccc2-n2c(C#N)ccc23)cc1)S(C)(=O)=O` (stereo not shown) [Compound 781], the IC50 was 2000 to 5000 nM.

Regarding `CC[C@@H](C)Oc1ccc(C(=O)N2CCC3(CC2)Oc2ccccc2-n2cccc23)cc1C(F)(F)F` [Compound 131], the IC50 is no more than 2000 nM. Turning to `Cc1cc(C#N)n2c1C1(CCN(C(=O)c3ccc(S(=O)(=O)C(C)C)cc3)CC1)Oc1ccccc1-2` [Compound 549], the half-maximal inhibitory concentration (IC50) is no more than 2000 nM. Then `CS(=O)(=O)c1ccc(C(=O)N2CCC3(CC2)Oc2ccccc2-n2c(C#N)ccc23)cc1C(F)(F)F` [Compound 504], with no more than 2000 nM; and `COc1c(F)cccc1C(=O)N1CCC2(CC1)Oc1cc(Cl)ccc1-c1c2cnn1C` [Compound 328], with no more than 2000 nM. Take `Cc1cc(C(=O)N2CCC3(CC2)Oc2cccc(C)c2-n2cccc23)ccc1OC(C)C` [Compound 7]: the concentration for half-maximal inhibition (IC50) was no more than 2000 nM.

`Cn1ncc2c1-c1ccccc1OC21CCN(C(=O)c2ccc(=O)n(C)c2)CC1` [Compound 87]: the half-inhibitory concentration (IC50) is greater than 5000 nM.

With `CCCOc1ccc(C(=O)N2CCC3(CC2)Oc2ccccc2-c2c3cnn2C)cc1` [Compound 128], the IC50 is no more than 2000 nM. The figure for `Cn1ncc2c1-c1ccccc1OC21CCN(C(=O)c2ccccc2NS(C)(=O)=O)CC1` [Compound 319] is 2000 to 5000 nM. Then `COc1cc(C(=O)N2CCC3(CC2)Oc2cc(F)ccc2-n2cccc23)ccc1C(C)(C)O` [Compound 168], with no more than 2000 nM. Then `Cn1ncc2c1-c1ccccc1OC21CCN(C(=O)c2cccc3c2CCO3)CC1` [Compound 160], with greater than 5000 nM; and `COc1cc(F)cc(C(=O)N2CCC3(CC2)Oc2cc(Cl)ccc2-n2cccc23)c1` [Compound 60], with no more than 2000 nM. With `COc1cc(C(=O)N2CCC3(CC2)Oc2cccnc2-n2cccc23)ccc1O[C@@H]1CCOC1` [Compound 533], the IC50 is no more than 2000 nM. On to `Cn1c(C(=O)N2CCC3(CC2)Oc2cc(Cl)ccc2-n2cccc23)cccc1=O` [Compound 718], for which the IC50 was in the range of 2000 to 5000 nM.

Consider `CC[C@H](C)Oc1ccc(C(=O)N2CCC3(CC2)Oc2cc(F)ccc2-n2cccc23)cc1OC` [Compound 142], for which the IC50 is no more than 2000 nM. Then `COc1cc(C(=O)N2CCC3(CC2)Oc2ccccc2-n2cccc23)ccc1OC(C)(C)C#N` [Compound 570], with no more than 2000 nM; and `COCCOc1ccc(C(=O)N2CCC3(CC2)Oc2ccccc2-n2cccc23)cc1OC` [Compound 791], with no more than 2000 nM. Consider `CC(C)C(O)c1ccc(C(=O)N2CCC3(CC2)Oc2ccccc2-n2c(C(F)(F)F)ccc23)cc1` (stereo not shown) [Compound 50], for which the IC50 was no more than 2000 nM. The figure for `COc1cc(C(=O)N2CCC3(CC2)Oc2cc(F)ccc2-n2cccc23)ccc1OC1CCC(O)C1` (stereo not shown) [Compound 196] is no more than 2000 nM; for `COc1c(Cl)cccc1C(=O)N1CCC2(CC1)Oc1ccccc1-c1c2cnn1C` [Compound 673] it is no more than 2000 nM; for `COc1cc(C(=O)N2CCC3(CC2)Oc2cc(F)ccc2-n2cccc23)ccc1OCC(C)(C)OC` [Compound 378] it is no more than 2000 nM. The figure for `CCCOc1ccc(C(=O)N2CCC3(CC2)Oc2ccccc2-n2cccc23)cc1OC` [Compound 352] is no more than 2000 nM; for `COc1ccc(C(=O)N2CCC3(CC2)Oc2ccccc2-c2c3cnn2C(F)(F)F)cc1OC` [Compound 890] it is no more than 2000 nM; for `O=C(c1cccc(Cl)c1)N1CCC2(CC1)Oc1cc(Cl)ccc1-n1cccc12` [Compound 870] it is no more than 2000 nM. Then `Cn1ncc2c1-c1ccccc1OC21CCN(C(=O)c2ccc(Cl)cc2S(C)(=O)=O)CC1` [Compound 667], with greater than 5000 nM; and `CCn1cccc(C(=O)N2CCC3(CC2)Oc2cc(Cl)ccc2-n2cccc23)c1=O` [Compound 728], with no more than 2000 nM; and `CC(C)Oc1ccc(C(=O)N2CCC3(CC2)Oc2ccccc2-n2cccc23)cc1C(F)(F)F` [Compound 376], with no more than 2000 nM.

As to `COc1cc(OC)c(C(=O)N2CCC3(CC2)Oc2cc(F)ccc2-n2cccc23)cc1CO` [Compound 660], the concentration for half-maximal inhibition (IC50) was no more than 2000 nM. Take `Cc1ccc(C(=O)N2CCC3(CC2)Oc2cc(Cl)ccc2-n2cccc23)c(=O)n1C` [Compound 502]: the IC50 is no more than 2000 nM.

As to `O=C(c1ccc(S(=O)(=O)NC2CC2)cc1)N1CCC2(CC1)Oc1ccccc1-n1cccc12` [Compound 209], the IC50 is no more than 2000 nM. Consider `COc1ccc(C(=O)N2CCC3(CC2)Oc2ccccc2-n2ccc(C)c23)cc1C(F)(F)F` [Compound 181], for which the concentration for half-maximal inhibition (IC50) is no more than 2000 nM. Then `Cn1cc2c(n1)-c1ccccc1OC21CCN(C(=O)c2ccc(C(C)(C)O)c(CO)c2)CC1` [Compound 425], with greater than 5000 nM. Take `CNS(=O)(=O)c1ccc(C(=O)N2CCC3(CC2)Oc2ccccc2-c2nn(C)cc23)cc1C` [Compound 523]: the concentration for half-maximal inhibition (IC50) is no more than 2000 nM.

As to `CCOc1c(F)cccc1C(=O)N1CCC2(CC1)Oc1ccccc1-n1c(C#N)ccc12` [Compound 769], the IC50 was no more than 2000 nM.

With `Cc1cc(OC(C)C)ccc1C(=O)N1CCC2(CC1)Oc1ccccc1-c1nn(C)cc12` [Compound 188], the IC50 is no more than 2000 nM.

Regarding `CNS(=O)(=O)c1ccc(C(=O)N2CCC3(CC2)Oc2ccccc2-c2c3cnn2C)cc1` [Compound 494], the IC50 was no more than 2000 nM. As to `COc1cc(C(=O)N2CCC3(CC2)Oc2ccccc2-c2nn(CC(F)(F)F)cc23)ccc1OCCC(C)C` [Compound 589], the IC50 is no more than 2000 nM. The figure for `COc1c(C(=O)N2CCC3(CC2)Oc2ccccc2-c2c3cnn2C)ccc(F)c1F` [Compound 702] is 2000 to 5000 nM.

Consider `CC(C)(C)S(=O)(=O)c1ccc(C(=O)N2CCC3(CC2)Oc2ccccc2-n2cccc23)cc1` [Compound 327], for which the IC50 was no more than 2000 nM. Turning to `Cc1nc2c(C(=O)N3CCC4(CC3)Oc3ccccc3-c3c4cnn3C)cccc2[nH]1` [Compound 92], the half-maximal inhibitory concentration (IC50) lay in the range of 2000 to 5000 nM. The figure for `COc1ccc(C(=O)N2CCC3(CC2)Oc2cc(F)ccc2-n2cccc23)cc1C(F)(F)F` [Compound 249] is no more than 2000 nM; for `CC(C)Oc1ccc(C(=O)N2CCC3(CC2)Oc2ccc(F)cc2-c2nn(C)cc23)cc1CO` [Compound 180] it is no more than 2000 nM.

A word on the IC50: it is the midpoint of a concentration-inhibition curve.
